Reference: patent US6737383B1, “Herbicidal oxadiazolidines” (priority 1999, dated 2004)

How the values were obtained:
wild oat = test: Test B pre/postemergence wild oat; assay type: in vivo, Avena fatua
Procedure, shortened: (§1)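 Response is a visual 0-to-10 score relative to untreated plants, where 0 means no effect and 10 means complete control, taken twelve to sixteen days after application. Treatments went onto soil at planting and onto foliage of 1- to 4-leaf plants, using a surfactant-containing non-phytotoxic solvent.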

bedstraw = test: Test B pre/postemergence bedstraw; assay type: in vivo, Galium aparine; conditions: for Bedstraw plant response rating: 10 is complete control
Procedure, shortened: as §1

corn = test: Test B pre/postemergence corn; assay type: in vivo, Zea mays
Procedure, shortened: as §1

giant foxtail = test: Test B pre/postemergence giant foxtail; assay type: in vivo, Setaria faberii
Procedure, shortened: as §1

wheat = test: Test B pre/postemergence wheat; assay type: in vivo, Triticum aestivum
Procedure, shortened: as §1

crabgrass = test: Test B pre/postemergence crabgrass; assay type: in vivo, Digitaria sanguinalis
Procedure, shortened: as §1

surinam grass = test: Test B pre/postemergence surinam grass; assay type: in vivo, Brachiaria decumbens
Procedure, shortened: as §1

purple nutsedge = test: Test B pre/postemergence purple nutsedge; assay type: in vivo, Cyperus rotundus
Procedure, shortened: as §1

soybean = test: Test B pre/postemergence soybean; assay type: in vivo, Glycine max
Procedure, shortened: as §1

blackgrass = test: Test B pre/postemergence blackgrass; assay type: in vivo, Alopecurus myosuroides
Procedure, shortened: as §1

cocklebur = test: Test B pre/postemergence cocklebur; assay type: in vivo, Xanthium strumarium
Procedure, shortened: as §1

pigweed = test: Test B pre/postemergence pigweed; assay type: in vivo, Amaranthus retroflexus
Procedure, shortened: as §1

velvetleaf = test: Test B pre/postemergence velvetleaf; assay type: in vivo, Abutilon theophrasti
Procedure, shortened: as §1

morningglory = test: Test B pre/postemergence morningglory; assay type: in vivo, Ipomoea hederacea
Procedure, shortened: as §1

rape = test: Test B pre/postemergence rape; assay type: in vivo, Brassica napus
Procedure, shortened: as §1

sugar beet = test: Test B pre/postemergence sugar beet; assay type: in vivo, Beta vulgaris
Procedure, shortened: as §1

[1] = Postemergence, Rate 62 g/ha, scale of 0 to 10, 0 is no effect, 10 is complete control
[2] = Postemergence, Rate 125 g/ha, scale 0 to 10, 0 is no effect, 10 is complete control
[3] = Postemergence, Rate 500 g/ha, scale 0 to 10, 0 is no effect, 10 is complete control
[4] = Preemergence, Rate 62 g/ha, scale of 0 to 10 where 0 is no effect and 10 is complete control
[5] = Preemergence, Rate 125 g/ha, scale 0 to 10, 0 is no effect, 10 is complete control
[6] = Preemergence, Rate 500 g/ha, scale of 0 to 10 where 0 is no effect and 10 is complete control
[7] = Postemergence, Rate 250 g/ha, scale 0 to 10
[8] = Preemergence, Rate 250 g/ha, scale 0 to 10, 0 is no effect, 10 is complete control

COC(=O)CCCn1c(=O)on(C(=O)N(c2ccc(F)cc2F)C(C)C)c1=O [Compound 513]
Wild oats plant response rating (wild oat; [1]): 0
Wild oats plant response rating (wild oat; [2]): 4
Plant response rating, Wild oats (wild oat; [3]): 6
Plant response rating, Wild oats (wild oat; [4]): 3
Wild oats plant response rating (wild oat; [5]): 3
Wild oats plant response rating (wild oat; [6]): 10
Bedstraw plant response rating (bedstraw; Postemergence, Rate 62 g/ha, scale of 0 to 10, 0 is no effect): 6
Plant response rating, Bedstraw (bedstraw; [4]): 0
Bedstraw plant response rating (bedstraw; Preemergence, Rate 250 g/ha, scale 0 to 10, 0 is no effect): 0
Bedstraw plant response rating (bedstraw; Preemergence, Rate 500 g/ha, scale 0 to 10, 0 is no effect): 4
Corn plant response rating (corn; [1]): 0
Corn plant response rating (corn; [2]): 0
Corn plant response rating (corn; [7]): 0
Plant response rating, Corn (corn; [3]): 3
Plant response rating, Corn (corn; [4]): 0
Corn plant response rating (corn; [5]): 0
Corn plant response rating (corn; [6]): 4
Giant foxtail plant response rating (giant foxtail; [1]): 1
Giant foxtail plant response rating (giant foxtail; [2]): 5
Plant response rating, Giant foxtail (giant foxtail; [3]): 8
Plant response rating, Giant foxtail (giant foxtail; [4]): 2
Giant foxtail plant response rating (giant foxtail; [5]): 6
Giant foxtail plant response rating (giant foxtail; [6]): 10
Wheat plant response rating (wheat; [1]): 3
Wheat plant response rating (wheat; [2]): 5
Plant response rating, Wheat (wheat; [3]): 6
Plant response rating, Wheat (wheat; [4]): 0
Wheat plant response rating (wheat; [5]): 2
Wheat plant response rating (wheat; [6]): 7
Crabgrass plant response rating (crabgrass; [1]): 1
Crabgrass plant response rating (crabgrass; [2]): 4
Crabgrass plant response rating (crabgrass; [7]): 6
Plant response rating, Crabgrass (crabgrass; [3]): 9
Plant response rating, Crabgrass (crabgrass; [4]): 4
Crabgrass plant response rating (crabgrass; [5]): 4
Crabgrass plant response rating (crabgrass; [6]): 5
B. signalgrass plant response rating (surinam grass; [1]): 0
B. signalgrass plant response rating (surinam grass; [2]): 3
B. signalgrass plant response rating (surinam grass; Postemergence, Rate 250 g/ha, scale 0 to 10, 0 no effect, 10 complete control): 6
Plant response rating, B. signalgrass (surinam grass; [3]): 8
Plant response rating, B. signalgrass (surinam grass; [4]): 0
B. signalgrass plant response rating (surinam grass; [5]): 0
B. signalgrass plant response rating (surinam grass; [8]): 5
B. signalgrass plant response rating (surinam grass; Preemergence, Rate 500 g/ha, scale 0 to 10, 0 is no effect, 10 is complete control): 9
Nutsedge plant response rating (purple nutsedge; [1]): 0
Nutsedge plant response rating (purple nutsedge; [2]): 0
Plant response rating, Nutsedge (purple nutsedge; [3]): 5
Plant response rating, Nutsedge (purple nutsedge; [4]): 0
Nutsedge plant response rating (purple nutsedge; [5]): 0
Nutsedge plant response rating (purple nutsedge; [6]): 0
Soybean plant response rating (soybean; [1]): 1
Soybean plant response rating (soybean; [2]): 7
Plant response rating, Soybean (soybean; [3]): 8
Plant response rating, Soybean (soybean; [4]): 0
Soybean plant response rating (soybean; [5]): 0
Soybean plant response rating (soybean; [6]): 5
Blackgrass plant response rating (blackgrass; [1]): 4
Blackgrass plant response rating (blackgrass; [2]): 4
Blackgrass plant response rating (blackgrass; [7]): 8
Plant response rating, Blackgrass (blackgrass; [3]): 8
Plant response rating, Blackgrass (blackgrass; [4]): 1
Blackgrass plant response rating (blackgrass; [5]): 4
Blackgrass plant response rating (blackgrass; [8]): 4
Blackgrass plant response rating (blackgrass; [6]): 10
Cocklebur plant response rating (cocklebur; [1]): 3
Cocklebur plant response rating (cocklebur; [2]): 3
Cocklebur plant response rating (cocklebur; [7]): 6
Plant response rating, Cocklebur (cocklebur; [3]): 7
Plant response rating, Cocklebur (cocklebur; [4]): 0
Cocklebur plant response rating (cocklebur; [5]): 0
Cocklebur plant response rating (cocklebur; [8]): 0
Cocklebur plant response rating (cocklebur; [6]): 0
Redroot pigweed plant response rating (pigweed; [1]): 3
Redroot pigweed plant response rating (pigweed; [2]): 6
Plant response rating, Redroot pigweed (pigweed; [3]): 7
Plant response rating, Redroot pigweed (pigweed; [4]): 7
Redroot pigweed plant response rating (pigweed; [5]): 7
Redroot pigweed plant response rating (pigweed; [6]): 10
Velvetleaf plant response rating (velvetleaf; [1]): 3
Velvetleaf plant response rating (velvetleaf; [2]): 3
Plant response rating, Velvetleaf (velvetleaf; [3]): 7
Plant response rating, Velvetleaf (velvetleaf; [4]): 0
Velvetleaf plant response rating (velvetleaf; [5]): 0
Velvetleaf plant response rating (velvetleaf; [6]): 0
Morningglory plant response rating (morningglory; [1]): 3
Morningglory plant response rating (morningglory; [2]): 3
Plant response rating, Morningglory (morningglory; [3]): 9
Plant response rating, Morningglory (morningglory; [4]): 0
Morningglory plant response rating (morningglory; [5]): 0
Morningglory plant response rating (morningglory; [6]): 3
Rape plant response rating (rape; [1]): 0
Rape plant response rating (rape; [2]): 4
Plant response rating, Rape (rape; [3]): 7
Plant response rating, Rape (rape; [4]): 0
Rape plant response rating (rape; [5]): 2
Rape plant response rating (rape; [6]): 7
Sugarbeets plant response rating (sugar beet; [1]): 2
Sugarbeets plant response rating (sugar beet; [2]): 4
Plant response rating, Sugarbeets (sugar beet; [3]): 7
Plant response rating, Sugarbeets (sugar beet; [4]): 0
Sugarbeets plant response rating (sugar beet; [5]): 0
Sugarbeets plant response rating (sugar beet; [6]): 0
